Data published in paper PMC7824081, “Inhibition of DOT1L by Half-Selenopsammaplin A Analogs Suppresses Tumor Growth and EMT-Mediated Metastasis in Triple-Negative Breast Cancer” (Pharmaceuticals, 2020).

Columns and labels:
[1] = tested on: MDA-MB-231/Luc cells-implanted orthotopic mouse model; assay: MDA-MB-231/Luc-implanted orthotopic mouse tumor model; type: in vivo; settings: for tumor growth inhibition rate: end of experiment
Description: All animal experiments were conducted following the guidelines approved by the Seoul National University Institutional Animal Care and Use Committee (IACUC; permission number: SNU-180430-4-1). Female nude mice (BALB/c-nu), 4 weeks old, were purchased from Central Laboratory Animal, Inc. (Seoul, Korea) and housed under pathogen-free conditions with a 12 h light-dark schedule. Luciferase expressing MDA-MB-231 cells were inoculated orthotopically into the fourth fat pad of mice (1 × 10^7 cells in 100 μL of 50:50 PBS/Matrigel) using a 29-gauge needle. Two weeks after implantation, mice were randomized into vehicle control and treatment groups of six animals per group and were administered with vehicle (EtOH/Cremophor/Normal saline = 5:5:90), 9l (10 or 30 mg/kg body weight), EPZ-5676 (30 mg/kg body weight), or paclitaxel (5 mg/kg body weight, Sigma-Aldrich) as a positive reference control. Compounds were administered intraperitoneally three times per week for 38 days. An additional week later, anesthetized mice were positioned in IVIS (PerkinElmer, Waltham, MA, USA) and were imaged 15 min after injection of 150 mg/kg D-luciferin (Gold Biotechnology, St. Louis, MO, USA) resuspended in DPBS (w/o calcium or magnesium). Mice were euthanized and primary tumors and lungs were excised, weighed, and frozen for further biochemical analysis. The length (L), width (W), and height (H) of the tumors were also measured using a digital slide caliper (Mitutoyo, Kawasaki, Japan) once a week, and tumor volumes (mm^3) were estimated by the formula LWH/2. Toxicity was evaluated based on body weight loss.
A portion of the frozen tumors excised from nude mice on the termination day of the experiment was homogenized using a hand-held homogenizer in complete lysis buffer (Active Motif, Carlsbad, CA, USA). Aliquots were stored at −80 °C, and the levels of protein expression in the tumor lysates were determined. The protein concentrations in the tumor lysates were measured using the Bradford assay.

MDA-MB-231 cells = assay: Wound healing assay (cell migration); type: cell-based, human; settings: 24 h
Description: MDA-MB-231 human TNBC cells were grown to 90% confluence in a 6-well plate. Subsequently, each cell monolayer was artificially wounded using a Scratcher (SPL Life Sciences, Pocheon, Republic of Korea), and the detached cells were removed by washing with phosphate-buffered saline (PBS, Invitrogen Corp., Carlsbad, CA, USA). The wounded cultures were then incubated with medium containing 1% FBS and various concentrations of 9l and PsA for 24 h. The wounds were photographed at 0 and 24 h under an inverted microscope (Olympus, Tokyo, Japan). The wound areas were quantified using ImageJ software (National Institutes of Health, Bethesda, MD, USA) and presented as the percent wound healing (%) relative to the wound area at 0 h.

[2] = tested on: other histone H3 methylated lysine residues in MDA-MB-231 cells; assay: Western blotting of other methylated histone H3 lysine residues in MDA-MB-231 cells; type: cell-based, human; settings: 48 h
Description: (§1) Total cell lysates were prepared in 2× sample loading buffer [250 mM Tris-HCl (pH 6.8), 10% glycerol, 4% sodium dodecyl sulfate (SDS), 2% β-mercaptoethanol, 0.006% bromophenol blue, 5 mM sodium orthovanadate, and 50 mM sodium fluoride; Bio-Rad, Hercules, CA, USA]. The protein concentrations of samples were quantified using the bicinchoninic acid (BCA) method and a BCA Protein Assay Kit (Thermo Fisher Scientific, Waltham, MA, USA). Equal amounts of protein (5–20 μg) were separated by 6–13% SDS-polyacrylamide gel electrophoresis (PAGE) and transferred to polyvinylidene fluoride membranes (Millipore, Bedford, MA, USA). The membranes were blocked with 5% bovine serum albumin (Sigma-Aldrich) and then probed with anti-DOT1L, anti-H3K79me2, anti-β-Actin, anti-histone H3, anti-H3K4me2, anti-H3K27me2, anti-H3K36me2, anti-H3K79me1, anti-H3K79me3, and anti-Vimentin antibodies purchased from Cell Signaling Technology (Beverly, MA, USA) or with anti-E-cadherin and anti-N-cadherin antibodies purchased from (BD Biosciences, San Jose, CA, USA). The blots were detected using a WEST-Queen detection system (iNtRON Biotechnology, Seongnam, Korea).

[3] = tested on: E-cadherin, N-cadherin, vimentin in MDA-MB-231 cells; assay: Western blotting of EMT biomarkers in MDA-MB-231 cells; type: cell-based, human; settings: 24 h
Description: as §1

[4] = IVIS imaging, vs vehicle-treated control
[5] = western blotting of tumor lysates

With `CC(C)(C)c1ccc(C/C(=N\O)C(=O)NCC[Se]Sc2ccccc2)cc1` [9l, (E)-3-(4-(tert-Butyl)phenyl)-2-(hydroxyimino)-N-(2-((phenylthio)selanyl)ethyl)propanamide] the “tumor growth inhibition rate” value ([1]; 10 mg/kg i.p., three times per week for 38 days) was 44.0%, the “tumor growth inhibition rate” value ([1]; 30 mg/kg i.p., three times per week for 38 days) was 55.8% and the “toxicity / body weight change” value ([1]; 10 or 30 mg/kg i.p., three times per week for 38 days) was “No overt toxicity or changes in body weight”. The “luminescence signal intensity from the primary tumor sites” value [1, 4] was “decreased”, the “luminescence signal intensity in excised lung tissues (lung metastasis)” value [1, 4] was “efficiently suppressed” and the “E-cadherin level in excised tumors” value [1, 5] was “upregulated”. For the same compound, the “H3K79me2 protein level in excised tumors” value [1, 5] was “downregulated”, the “Ki-67 expression in tumor tissues” value [1, 5] was “significantly suppressed” and the “N-cadherin protein level in excised tumors” value [1, 5] was “downregulated”. The “vimentin protein level in excised tumors” value [1, 5] was “downregulated”, the “wound closure (cell migration)” value (MDA-MB-231 cells) was “significantly inhibited” and the “other histone H3 methylated lysine residues” value [2] was “not affected”. For the same compound, the E-cadherin protein expression [3] was “upregulation”, the N-cadherin protein expression [3] was “downregulation” and the vimentin protein expression [3] was “downregulation”.
